Measured values taken from US20110015206A1, “METHOD OF STABILIZING LIPID-RICH PLAQUE AND METHOD OF PREVENTING RUPTURE THEREOF” (KOWA CO., LTD., priority 2003, published 2011).

Experiments:
Assay type in all cases: in vivo
ApoE knockout mice [1] = assay: Plasma total cholesterol level in ApoE knockout mice with primary hyperlipidemia; details: male ApoE knockout mice, 100 mg/kg orally twice a day for 12 weeks; mean±standard error; control group 641.8±23.0
Method: (§1) Home breeding male ApoE knockout mice, (C57BL/6J-ApoE<tmlUnc>, Jackson Labo™) were bred under common condition, 8 weeks old, were used for test.
(§2) The compound 1 (Example 32, WO98/54153) and control drug, CI-1011 (Example 5, WO 94/26702), were synthesized according to methods described in each publication. The compound 1 and CI-1011 were dissolved (the compound 1) or suspended (CI-1011) in aqueous solution of 0.5% methylcellulose (MC). The solution or suspension was prepared to be a dose of 100 mg/kg and a volume for administration of 0.1 mL/10 g body weight. The control group (no drug administered group) received the solvent, aqueous solution of 0.5% methylcellulose (MC). Prepared drug solution and suspension were administered twice a day, orally, for continuing to 12 weeks (up to 20 weeks old) (total 3 groups, each 15 animal).
After ending the final administration, mice were fasted. In the next morning, mice were laparotomized under pentobarbital sodium anesthesia to expose abdominal vein and collected blood sample 1 mL. The collected blood was centrifuged at 3000 rpm for 15 minutes to collect the plasma. Plasma total cholesterol level was assayed by using cholesterol E-test Wako (cholesterol oxidase DAOS method).
Obtained results are shown in mean±standard error. Test of significance between the control group and the drug-administered group is performed by Dunnett's test.

ApoE knockout mice [2] = assay: Cross-sectional area of the plaques in aortic sinus, Victoria blue-hematoxylin and eosin staining; details: male ApoE knockout mice, 100 mg/kg orally twice a day for 12 weeks, mean±standard error, control group 0.23±0.03
Method: as §1
as §2, with “Prepared drug solution and suspension were administered twice a day, orally, for continuing to 12 weeks (up to 20 weeks old) (total 3 groups, each 15 animal).” left out
(§3) After collecting the blood, animals were undergone thoracotomy and 20-G injection needle was punctured into the cardiac apex. […] Using the specimens of Victoria blue-hematoxylin and eosin staining, the internal elastic layer was specified by observation of optical microscope, and the cross-sectional area of the plaques was analyzed (Win ROOF, Mitsuya Shoji K.K.). Similarly, the area of macrophages was measured by using the specimens of macrophage immunohistochemical staining, and a ratio in total area of the plaques (the occupancy rate of macrophages) was calculated. […]

ApoE knockout mice [3] = assay: Macrophage immunohistochemical staining (anti-CD11b antibody) of aortic sinus plaques; details: male ApoE knockout mice, 100 mg/kg orally twice a day for 12 weeks; compared with control group
Method: as §1
as §2, with “Prepared drug solution and suspension were administered twice a day, orally, for continuing to 12 weeks (up to 20 weeks old) (total 3 groups, each 15 animal).” left out
as §3

ApoE knockout mice [4] = assay: Sirius Red staining of collagen in aortic sinus plaques; details: male ApoE knockout mice, 100 mg/kg orally twice a day for 12 weeks; compared with control group
Method: as §1
as §2, with “Prepared drug solution and suspension were administered twice a day, orally, for continuing to 12 weeks (up to 20 weeks old) (total 3 groups, each 15 animal).” left out
as §3

ApoE knockout mice [5] = assay: Azan staining of aortic sinus plaques; details: male ApoE knockout mice, 100 mg/kg orally twice a day for 12 weeks; compared with control group
Method: as §1
as §2, with “Prepared drug solution and suspension were administered twice a day, orally, for continuing to 12 weeks (up to 20 weeks old) (total 3 groups, each 15 animal).” left out
as §3

## CSc1cc(C)nc(SC)c1NC(=O)CN1CCN(CCSc2nc3ccccc3[nH]2)CC1 [compound 1, 2-[4-[2-(benzimidazol-2-ylthio)ethyl]piperazin-1-yl]-N-[2,4-bis(methylthio)-6-methyl-3-pyridyl]acetamide]
ApoE knockout mice [1]
  plasma total cholesterol level: 535.0 ± 22.8 mg/dL
ApoE knockout mice [2]
  cross-sectional area of the plaques: 0.22±0.03 mm^2
ApoE knockout mice [3]
  macrophage immunohistochemical staining (observation): the macrophages were occasionally observed
ApoE knockout mice [4]
  Sirius Red staining, collagen fibers (observation): compactly arranged collagen fibers were observed in whole plaques
ApoE knockout mice [5]
  Azan staining, composition of the plaques (observation): the plaques consisted of small area of cellular components and large numbers of surrounding extracellular matrix

## CC(C)c1cc(C(C)C)c(CC(=O)NS(=O)(=O)Oc2c(C(C)C)cccc2C(C)C)c(C(C)C)c1 [CI-1011, avasimibe]
ApoE knockout mice [1]
  plasma total cholesterol level: 360.3 ± 19.4 mg/dL
ApoE knockout mice [2]
  cross-sectional area of the plaques: 0.09±0.01 mm^2
ApoE knockout mice [3]
  macrophage immunohistochemical staining (observation): the macrophages were observed abundantly in whole plaques
ApoE knockout mice [4]
  Sirius Red staining, collagen fibers (observation): smaller numbers of collagen fibers were observed as compared with the control group
ApoE knockout mice [5]
  Azan staining, composition of the plaques (observation): the plaques consisted largely of red stained macrophage and the blue stained extracellular matrix was scanty
